Test results published in US20140105829A1, “THERAPEUTIC NANOEMULSION FORMULATION FOR THE TARGETED DELIVERY OF DOCETAXEL AND METHODS OF MAKING AND USING THE SAME” (Nemucore Medical Innovations, Inc., priority 2012, published 2014).

Assays:
[1] = test system: subcutaneous SKOV3 tumors; design: species or system Nu/Nu mice; settings: mouse, in vivo, iv
Text: Three female Nu/Nu mice (Charles River Laboratories, Cambridge, Mass.) each weighing approximately 20 g and bearing subcutaneous SKOV3 tumors (human ovary cancer cells, American Type Culture Collection (ATCC), Manassas, Va.) […], were used as test subjects. The first mouse was intravenously injected with gadopentetic acid containing a 0.072 mmol/kg dose of Gd-DTPA-PE (Magnevist™). The second mouse was intravenously injected with a non-targeted Gd-labeled nanoemulsion formulation of the present disclosure containing a 0.072 mmol/kg dose of Gd-DTPA-PE. The third mouse was intravenously injected with a folate receptor-targeted Gd-labeled nanoemulsion formulation of the present disclosure containing a 0.072 mmol/kg dose of the gadolinium-based MRI contrasting agent Gd-DTPA-PE. All three mice were full body scanned and imaged using a Bruker Biospec 20/70 MRI machine over a period of 24 hr.

[2] = Dose range finding plasma pharmacokinetic study; format: in vivo; settings: CD-1 mice, iv; for AUC0-∞ / AUClast / Cl / Cmax / MRT / Tmax / Vd / t1/2: plasma docetaxel
Description: A dose range finding (DRF) study was conducted to determine the pharmacokinetic profile of folate receptor-targeted nanoemulsion formulations according to the disclosure administered to CD-1 mice at dose levels ranging from 1 mg/kg to 10 mg/kg. […] Blood was collected at 5 min, 30 min, 1 hr, 2 hr, 4 hr, 6 hr, 8 hr, 12 hr, and 24 hr after injection. Docetaxel concentration in the plasma was measured using a liquid chromatography-mass spectrometer (LC-MS/MS).
Pharmacokinetic parameters were calculated by non-compartmental analysis using Phoenix WinNonlin 6.2 version.

SKOV3TR cells = test: MTT cytotoxicity assay, SKOV3TR; format: cell-based, human; settings: 72 hr treatment, mean±SD, n=8, Pgp-expressing multidrug resistant cells
Description: In order to determine if the nanoemulsion formulations according to the disclosure produce a cytotoxic effect, the following experiments were done on SKOV3 and SKOV3TR cells. SKOV3TR cells express P-glycoprotein (Pgp), which produces chemotherapeutic agent efflux out of the cell and is associated with multidrug resistant cancer cells.
(§1) A tetrazolium (MTT) assay was performed, which measures the activity of cellular enzymes that reduces the MTT dye to insoluble formazan. SKOV3 and SKOV3TR cells were treated with corresponding test nanoemulsions or control solutions as indicated below in Table V. Polyethylenimine at 50 μg/ml was used as a positive control for cytotoxicity. […] After the completion of treatment, cells were incubated with MTT reagent (50 μg/well) for 2 hr, the resulting formazan crystals were dissolved in dimethyl sulfoxide ([…]) and measured at 570 nm in the Plate reader (Synergy HT, Biotek Instruments, Winooski, Vt.).
(§2) All IC50 values were obtained by analyzing the MTT assays results using Graphpad Prism 5 scientific data analysis software.

SKOV3 cells = test: MTT cytotoxicity assay, SKOV3; format: cell-based, human; settings: 72 hr treatment, mean±SD, n=8
Description: as §1, §2

[3] = 1 mg/kg docetaxel as folate receptor-targeted nanoemulsion formulation
[4] = 5 mg/kg docetaxel as folate receptor-targeted nanoemulsion formulation
[5] = 10 mg/kg docetaxel as folate receptor-targeted nanoemulsion formulation

CNC[C@H](O)[C@@H](O)[C@H](O)[C@H](O)CO.CNC[C@H](O)[C@@H](O)[C@H](O)[C@H](O)CO.O=C([O-])CN(CCN(CC(=O)[O-])CC(=O)O)CCN(CC(=O)[O-])CC(=O)O.[Gd+3] [Magnevist, gadopentetic acid]
time by which tumor signal cleared to near baseline [1]: ≤ 6 h

docetaxel [Docetaxel in solution]
AUC0-∞ [2, 3]: 475 ± 34 ng·h/mL | AUClast [2, 3]: 789 ± 667 ng·h/mL | Cl [2, 3]: 35.17 ± 2.55 mL/min/kg | Cmax [2, 3]: 2125 ± 1181 ng/mL | MRT [2, 3]: 1.53 ± 0.3 h | Tmax [2, 3]: 4.98 min | Vd [2, 3]: 13.275 ± 7.029 L/kg | t1/2 [2, 3]: 4.29 ± 2 h | dose dependence of plasma docetaxel pharmacokinetics ([2]; 1 mg/kg to 10 mg/kg, folate receptor-targeted nanoemulsion formulation): linear pharmacokinetics from 1 mg/kg to 5 mg/kg | AUC0-∞ [2, 4]: 19095 ± 24050 ng·h/mL | AUClast [2, 4]: 19026 ± 24077 ng·h/mL | Cl [2, 4]: 15.4 ± 16.77 mL/min/kg | Cmax [2, 4]: 38267 ± 31757 ng/mL | MRT [2, 4]: 2.25 ± 0.5 h | Tmax [2, 4]: 4.98 min | Vd [2, 4]: 9.074 ± 12.083 L/kg | t1/2 [2, 4]: 4.9 ± 2.6 h | AUC0-∞ [2, 5]: 16719 ± 28251 ng·h/mL | AUClast [2, 5]: 16653 ± 28251 ng·h/mL | Cl [2, 5]: 16 ± 12.5 mL/min/kg | Cmax [2, 5]: 52229 ± 28251 ng/mL | MRT [2, 5]: 2.6 ± 1 h | Tmax [2, 5]: 4.98 min | Vd [2, 5]: 5.801 ± 5.151 L/kg | t1/2 [2, 5]: 3.7 ± 1 h | IC50 (SKOV3TR cells): 27000 nM | IC50 (SKOV3 cells): 1 ± 1.3 nM
